Test results: patent US10077261B2, “Imidazolin-5-one derivative useful as FASN inhibitors for the treatment of cancer” (Janssen Pharmaceutica NV, priority 2012, dated 2018)

Molecular target: T1, hFASN enzyme (full length) (Homo sapiens, UniProt P49327)
T1 construct: 10 μL hFASN enzyme (full length, 300 ng, purified in house); made in house
Test: Fatty Acid Synthase (FASN) inhibition scintillation proximity assay
Format: biochemical
Conditions: for inhibition at 10 µM: read-out: Human FASN % inhibition @ 10 μM, 10 μM test compound; for IC50: read-out: Human FASN pIC50 (converted)
Method: In this assay, inhibition of FASN activity is measured using ^3H-acetyl-CoA and malonyl-CoA as substrates. ^3H-Acetyl CoA is converted to ^3H-palmitate through a series of reactions by the FASN protein, which contains 7 functional domains and carries out 7 enzymatic reactions to ultimately produce ^3H-palmitate. The assay principle is based upon the fact that ^3H-acetyl-CoA is hydrophilic and the end product, ^3H-palmitate is hydrophobic.
10 μL assay buffer (100 mM KH2PO4 pH 7.5, 1 mM DTT) (20 μL in blanks) was added to a 384-well white optiplate plate (Perkin Elmer). 0.9 μL test compound (at concentrations of 30 μM, 10 μM, 3 μM, 1 μM, 0.30 μM, 0.10 μM, 0.03 μM and 0.01 μM)/DMSO and 10 μL hFASN enzyme (full length, 300 ng, purified in house) or 10 μL assay buffer was added to the wells. […] The reaction was stopped by adding 20 μL Streptavidin coupled imaging beads (25 mg/ml). After incubation for 30 minutes at room temperature in the dark, the 384 well plate was centrifuged at 1500 rpm for 3 minutes and was measured after at least 24 hrs by the LEADseeker™, measuring emission using a 610±20 nm pass filter.
where mLC and mHC were the means of the low control wells and high control wells on the plate, after manual exclusion of outliers. A plot of Controlmin versus test compound concentration was fitted to a 4-parameter logistic curve using a non-linear least squares regression method.

T1 sequence (P49327 whole entry): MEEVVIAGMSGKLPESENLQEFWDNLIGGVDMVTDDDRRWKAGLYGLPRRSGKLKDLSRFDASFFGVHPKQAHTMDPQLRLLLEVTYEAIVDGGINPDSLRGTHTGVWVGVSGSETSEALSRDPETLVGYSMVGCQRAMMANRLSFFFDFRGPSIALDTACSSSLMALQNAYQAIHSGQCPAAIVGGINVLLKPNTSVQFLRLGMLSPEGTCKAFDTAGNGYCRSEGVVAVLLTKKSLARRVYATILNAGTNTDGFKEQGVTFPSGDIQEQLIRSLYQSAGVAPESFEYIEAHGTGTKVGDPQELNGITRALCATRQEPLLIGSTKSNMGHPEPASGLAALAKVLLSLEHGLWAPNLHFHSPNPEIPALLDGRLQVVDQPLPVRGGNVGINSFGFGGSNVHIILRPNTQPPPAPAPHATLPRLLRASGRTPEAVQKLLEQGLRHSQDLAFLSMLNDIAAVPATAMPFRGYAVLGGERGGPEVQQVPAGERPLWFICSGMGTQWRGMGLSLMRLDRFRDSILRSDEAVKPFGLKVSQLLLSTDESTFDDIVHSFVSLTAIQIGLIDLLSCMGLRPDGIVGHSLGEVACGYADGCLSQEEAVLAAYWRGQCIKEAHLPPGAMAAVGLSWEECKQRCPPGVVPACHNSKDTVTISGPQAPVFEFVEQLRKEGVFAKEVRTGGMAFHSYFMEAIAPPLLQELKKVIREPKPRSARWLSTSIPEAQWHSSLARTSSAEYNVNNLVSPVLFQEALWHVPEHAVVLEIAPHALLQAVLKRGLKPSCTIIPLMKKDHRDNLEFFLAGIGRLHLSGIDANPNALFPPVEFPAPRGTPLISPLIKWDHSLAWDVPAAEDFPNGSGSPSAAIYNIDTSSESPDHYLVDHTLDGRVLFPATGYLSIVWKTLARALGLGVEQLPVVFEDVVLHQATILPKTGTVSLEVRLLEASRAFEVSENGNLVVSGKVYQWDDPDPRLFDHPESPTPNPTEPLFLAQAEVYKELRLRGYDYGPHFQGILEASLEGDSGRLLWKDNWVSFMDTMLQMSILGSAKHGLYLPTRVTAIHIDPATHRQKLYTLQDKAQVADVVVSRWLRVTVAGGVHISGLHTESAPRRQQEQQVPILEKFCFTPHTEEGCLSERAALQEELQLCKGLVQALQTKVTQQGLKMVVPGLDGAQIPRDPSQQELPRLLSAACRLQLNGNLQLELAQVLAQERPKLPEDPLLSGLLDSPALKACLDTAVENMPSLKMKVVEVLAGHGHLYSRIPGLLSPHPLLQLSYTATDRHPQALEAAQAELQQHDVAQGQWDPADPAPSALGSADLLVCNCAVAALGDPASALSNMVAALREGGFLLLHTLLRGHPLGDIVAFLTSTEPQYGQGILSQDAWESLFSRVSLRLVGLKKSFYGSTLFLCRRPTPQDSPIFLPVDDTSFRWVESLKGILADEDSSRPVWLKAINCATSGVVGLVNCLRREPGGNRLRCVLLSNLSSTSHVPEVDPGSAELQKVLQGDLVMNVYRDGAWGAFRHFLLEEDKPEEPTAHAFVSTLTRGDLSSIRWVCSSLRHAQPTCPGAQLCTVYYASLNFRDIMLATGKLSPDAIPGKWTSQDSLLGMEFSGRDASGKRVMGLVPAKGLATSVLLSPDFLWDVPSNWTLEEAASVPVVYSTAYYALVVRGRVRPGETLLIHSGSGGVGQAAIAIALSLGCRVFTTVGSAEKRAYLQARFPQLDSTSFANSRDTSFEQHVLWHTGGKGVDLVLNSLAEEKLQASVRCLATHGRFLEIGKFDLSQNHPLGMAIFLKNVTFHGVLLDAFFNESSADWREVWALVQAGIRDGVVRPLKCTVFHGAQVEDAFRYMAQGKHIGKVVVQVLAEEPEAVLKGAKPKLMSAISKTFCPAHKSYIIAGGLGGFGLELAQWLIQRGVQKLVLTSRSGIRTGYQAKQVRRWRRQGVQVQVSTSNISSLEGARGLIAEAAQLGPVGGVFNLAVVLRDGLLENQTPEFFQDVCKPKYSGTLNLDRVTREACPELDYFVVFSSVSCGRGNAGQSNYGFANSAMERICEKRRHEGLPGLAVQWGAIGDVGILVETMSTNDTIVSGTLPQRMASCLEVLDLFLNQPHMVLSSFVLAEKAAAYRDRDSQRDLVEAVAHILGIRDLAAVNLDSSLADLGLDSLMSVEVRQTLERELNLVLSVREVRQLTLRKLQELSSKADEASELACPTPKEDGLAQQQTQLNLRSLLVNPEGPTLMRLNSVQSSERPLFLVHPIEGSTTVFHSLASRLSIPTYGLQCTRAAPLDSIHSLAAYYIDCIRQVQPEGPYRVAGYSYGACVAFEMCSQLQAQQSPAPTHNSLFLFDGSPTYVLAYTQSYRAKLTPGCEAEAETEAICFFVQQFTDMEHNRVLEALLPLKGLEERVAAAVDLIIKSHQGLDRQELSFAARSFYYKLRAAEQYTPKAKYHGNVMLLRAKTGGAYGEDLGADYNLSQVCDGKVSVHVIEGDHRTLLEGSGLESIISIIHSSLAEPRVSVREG

Structure (SMILES)	inhibition at 10 µM	IC50
Cn1ncc2cc(-c3ccc(C4=NC5(CCNCC5)C(=O)N4CC4CN(C(=O)C5CC5)C4)cc3)ccc21 [compound 131, 3-{[1-(Cyclopropylcarbonyl)azetidin-3-yl]methyl}-2-[4-(1-methyl-1H-indazol-5-yl)phenyl]-1,3,8-triazaspiro[4.5]dec-1-en-4-one]	52.1%	8910 nM
COc1cc(-c2ccc3[nH]ccc3c2)ccc1C1=NC2(CCCC2)C(=O)N1C[C@@H]1CCN(C(=O)C2CC2)C1 [compound 157, 3-{[(3R)-1-(Cyclopropylcarbonyl)pyrrolidin-3-yl]methyl}-2-[4-(1H-indol-5-yl)-2-methoxyphenyl]-1,3-diazaspiro[4.4]non-1-en-4-one]	112%	67.6 nM
O=C(N1CC[C@@H](CN2C(=O)C3(CCOC3)N=C2c2ccc(-c3ccc4cccnc4c3)cc2)C1)C(F)(F)F (stereo partly drawn) [compound 684, 2-(4-Quinolin-7-ylphenyl)-3-{[(3R)-1-(trifluoroacetyl)pyrrolidin-3-yl]methyl}-7-oxa-1,3-diazaspiro[4.4]non-1-en-4-one]	61%	4270 nM
Cn1nc2ccc(-c3ccc(C4=NC5(CC5)C(=O)N4C[C@@H]4CCN(C(=O)C5CC5)C4)cc3)cc2c1CO [compound 487, 6-{[(3R)-1-(Cyclopropylcarbonyl)pyrrolidin-3-yl]methyl}-5-{4-[3-(hydroxymethyl)-2-methyl-2H-indazol-5-yl]phenyl}-4,6-diazaspiro[2.4]hept-4-en-7-one]	81%	1170 nM
CC(=O)N1CCC2(CC1)N=C(c1ccc(-c3ccc4c(c3)CCN(C(C)=O)C4)cc1)N(C[C@@H]1CCN(C(=O)C3CC3)C1)C2=O [compound 160]	29.3%	> 10000 nM
O=C([C@H]1CCCO1)N1CC[C@@H](CN2C(=O)C3(CCCC3)N=C2c2ccc(-c3ccc4occc4c3)cc2)C1 [compound 191, 2-[4-(1-Benzofuran-5-yl)phenyl]-3-({(3R)-1-[(2R)-tetrahydro-furan-2-ylcarbonyl]pyrrolidin-3-yl}methyl)-1,3-diazaspiro[4.4]non-1-en-4-one]	108%	79.4 nM
Cc1cc(C2=NC3(CC3)C(=O)N2CC2CN(C(=O)C3CC3)C2)ccc1-c1ccc2sc(C)c(C)c2c1 [compound 447, 6-{[1-(Cyclopropylcarbonyl)azetidin-3-yl]methyl}-5-[4-(2,3-dimethyl-1-benzothiophen-5-yl)-3-methylphenyl]-4,6-diazaspiro[2.4]hept-4-en-7-one]	79%	1200 nM
COC(=O)N1CC2(C1)N=C(c1ccc(-c3ccc4cccnc4c3)cc1)N(C[C@@H]1CCN(C(=O)c3nccs3)C1)C2=O [compound 962, (R)-methyl 8-oxo-6-(4-(quinolin-7-yl)phenyl)-7-((1-(thiazole-2-carbonyl)pyrrolidin-3-yl)methyl)-2,5,7-triazaspiro[3.4]oct-5-ene-2-carboxylate]	43%	> 10000 nM
O=C(N1CCCC1)N1CC[C@@H](CN2C(=O)C3(CCOCC3)N=C2c2ccc(-c3ccc4occc4c3)cc2)C1 [compound 671, 2-[4-(1-Benzofuran-5-yl)phenyl]-3-{[(3S)-1-(pyrrolidin-1-ylcarbonyl)pyrrolidin-3-yl]methyl}-8-oxa-1,3-diazaspiro[4.5]dec-1-en-4-one]	76%	1660 nM
O=C(C1CC1)N1CC(CN2C(=O)C3(CCOCC3)N=C2c2ccc(-c3ccc4occc4c3)cc2)C1 [compound 702, 2-[4-(1-Benzofuran-5-yl)phenyl]-3-{[1-(cyclopropylcarbonyl)azetidin-3-yl]methyl}-8-oxa-1,3-diazaspiro[4.5]dec-1-en-4-one]	75%	~2630 nM
Cn1cc(-c2ccc(-c3ccc(C4=NC5(CC5)C(=O)N4C[C@@H]4CCCN(C(=O)C5CC5)C4)cc3)cc2)cn1 [compound 823, (R)-6-((1-(cyclopropanecarbonyl)piperidin-3-yl)methyl)-5-(4′-(1-methyl-1H-pyrazol-4-yl)-[1,1′-biphenyl]-4-yl)-4,6-diazaspiro[2.4]hept-4-en-7-one]	31%	> 10000 nM
CC(C)C(=O)N1CCC2(CC1)N=C(c1ccc(-c3ccc4[nH]ncc4c3)cc1)N(CC1CN(C(=O)C3CC3)C1)C2=O [compound 754, 3-{[1-(Cyclopropylcarbonyl)azetidin-3-yl]methyl}-2-[4-(1H-indazol-5-yl)phenyl]-8-(2-methylpropanoyl)-1,3,8-triazaspiro[4.5]dec-1-en-4-one]	67%	2950 nM
Cn1ncc2cc(-c3ccc(C4=NC5(CCOC5)C(=O)N4CC4CN(C(=O)c5nccs5)C4)cc3)ccc21 (stereo not drawn) [compound 909, 2-(4-(1-methyl-1H-indazol-5-yl)phenyl)-3-((1-(thiazole-2-carbonyl)azetidin-3-yl)methyl)-7-oxa-1,3-diazaspiro[4.4]non-1-en-4-one]	6%	> 10000 nM
Cn1ncc2cc(-c3ccc(C4=NC5(CCOCC5)C(=O)N4CC4CN(C(=O)C5CC5)C4)cc3)ccc21 [compound 706, 3-{[1-(Cyclopropylcarbonyl)azetidin-3-yl]methyl}-2-[4-(1-methyl-1H-indazol-5-yl)phenyl]-8-oxa-1,3-diazaspiro[4.5]dec-1-en-4-one]	65%	~2340 nM
CN(C)CC(=O)N1CCC2(CC1)N=C(c1ccc(-c3ccc4[nH]ncc4c3)cc1)N(C[C@@H]1CCN(C(=O)C3CC3)C1)C2=O [compound 165, 3-{[(3R)-1-(Cyclopropylcarbonyl)pyrrolidin-3-yl]methyl}-8-(N,N-dimethylglycyl)-2-[4-(1H-indazol-5-yl)phenyl]-1,3,8-triazaspiro[4.5]dec-1-en-4-one]	108%	229 nM
Cc1cc2cc(-c3ccc(C4=NC5(CCN(C(=O)CN(C)C)CC5)C(=O)N4C[C@@H]4CCN(C(=O)C5CC5)C4)cc3)ccc2o1 [compound 174, 3-{[(3R)-1-(Cyclopropylcarbonyl)pyrrolidin-3-yl]methyl}-8-(N,N-dimethylglycyl)-2-[4-(2-methyl-1-benzofuran-5-yl)phenyl]-1,3,8-triazaspiro[4.5]dec-1-en-4-one]	109%	245 nM
CC(C)n1ccc2cc(-c3ccc(C4=NC5(CC5)C(=O)N4CC4CN(C(=O)C5CC5)C4)cc3)ccc21 [compound 508, 6-{[1-(Cyclopropylcarbonyl)azetidin-3-yl]methyl}-5-{4-[1-(1-methylethyl)-1H-indol-5-yl]phenyl}-4,6-diazaspiro[2.4]hept-4-en-7-one]	74%	2880 nM
CC(C)n1ncc2cc(-c3ccc(C4=NC5(CC5)C(=O)N4CC4CN(C(=O)C5CC5)C4)cc3)ccc21 [compound 807, 6-((1-(cyclopropanecarbonyl)azetidin-3-yl)methyl)-5-(4-(1-isopropyl-1H-indazol-5-yl)phenyl)-4,6-diazaspiro[2.4]hept-4-en-7-one]	7%	> 10000 nM
Cn1ncc2cc(-c3ccc(C4=NC5(CCOC5)C(=O)N4C[C@@H]4CCN(C(=O)c5nccs5)C4)cc3)ccc21 (stereo partly drawn) [compound 892, 2-(4-(1-methyl-1H-indazol-5-yl)phenyl)-3-(((R)-1-(thiazole-2-carbonyl)pyrrolidin-3-yl)methyl)-7-oxa-1,3-diazxaspiro[4.4]non-1-en-4-one]	-29%	> 10000 nM
Cc1ccc(-c2ccc(-c3ccc(C4=NC5(CC5)C(=O)N4C[C@H]4CCCN(C(=O)C5CC5)C4)cc3)cc2)cc1 [compound 812, (S)-6-((1-(cyclopropanecarbonyl)piperidin-3-yl)methyl)-5-(4″-methyl[1,1′:4′,1″- terphenyl]-4-yl)-4,6-diazaspiro[2.4]hept-4-en-7-one]	5%	> 10000 nM
O=C(C1CC1)N1CCC(CN2C(=O)C3(CC3)N=C2c2ccc(-c3ccc(O)cc3)cc2)CC1 [compound 55, 6-{[1-(Cyclopropylcarbonyl)piperidin-4-yl]methyl}-5-(4′-hydroxybiphenyl-4-yl)-4,6-diazaspiro[2.4]hept-4-en-7-one]	32.7%	> 10000 nM
Cc1cc2cc(-c3ccc(C4=NC5(CC5)C(=O)N4CC4CN(C(=O)C5CC5)C4)cc3C)ccc2o1 [compound 179, 6-{[1-(Cyclopropylcarbonyl)azetidin-3-yl]methyl}-5-[3-methyl-4-(2-methyl-1-benzofuran-5-yl)phenyl]-4,6-diazaspiro[2.4]hept-4-en-7-one]	59.5%	6310 nM
Cc1ccc(-c2ccc(-c3ccc(C4=NC5(CC5)C(=O)N4C[C@@H]4CCCN(C(=O)C5CC5)C4)cc3)cc2)cc1 [compound 821, (R)-6-((1-(cyclopropanecarbonyl)piperidin-3-yl)methyl)-5-(4″-methyl-[1,1′:4′,1″- terphenyl]-4-yl)-4,6-diazaspiro[2.4]hept-4-en-7-one]	7%	> 10000 nM
COC(=O)N1CCC2(CC1)N=C(c1ccc(-c3ccc4occc4c3)cc1)N(CC1CN(C(=O)C3CC3)C1)C2=O [compound 16, Methyl 2-[4-(1-benzofuran-5-yl)phenyl]-3-{[1-(cyclopropylcarbonyl)azetidin-3-yl]methyl}-4-oxo-1,3,8-triazaspiro[4.5]dec-1-ene-8-carboxylate]	72.5%	1380 nM
